Reference: US20240299328A1, “COMPOSITIONS COMPRISING 15-HEPE AND METHODS OF TREATING AND/OR PREVENTING HEMATOLOGIC DISORDERS AND RELATED DISEASES” (Afimmune Limited, priority 2023, published 2024)

Tests used:
rats = conditions: 26-week oral, once daily; cited from earlier work
[1] = test system: humanized sickle cell (SS) mice; assay: Humanized SCD (SS) mice under normoxia, 6 weeks treatment; assay type: in vivo; conditions: 1000 mg/Kg/d for 6 weeks
Protocol: Animals and design of the study: Experiments were performed on 4-5 months-old sex matched healthy control (Hba^tm1(HBA) Tow Hbb^tm3(HBG1, HBB) Tow) and SCD (Hba^tm1(HBA)Tow Hbb^tm2(HBG1.HBB*)Tow) mice. The study used 4-5 months-old mice. The sickle cell related organ damage is not so severe to generate confounding factors when the impact of H/R induced stress is evaluated. This is also corroborated by the observation of Kasztan M et al who show gender-related differences in kidney function of humanized SCD mice becoming significant after 24 weeks (6 months) of age. The size of the mouse groups was established based on studies with the same mouse model for SCD generated by us and other labs. Mice were randomly assigned to the different treatment groups and analysis. Healthy and SS mice were treated with ether vehicle (hydroxypropyl methyl cellulose, HPMC, 0.5%) or Epeleuton in HPMC 0.5% (1000 mg/kg/day) administrated by gavage for 6 weeks. […] When indicated, mice underwent a hypoxia/reoxygenation stress (H/R): 10 hours hypoxia (8% oxygen) followed by 3 hours reoxygenation (21% oxygen) to mimic acute vaso-occlusive crisis as previously described. Whole blood and organs were collected from each mouse under isoflurane anesthesia. Organs were immediately removed and divided into two portions which were either immediately frozen in liquid nitrogen or fixed in 10% formalin and embedded in paraffin for histology. Hematological parameters were evaluated with a Sysmex XN-1000 Hematology Analyzer and red cell morphology was evaluated as previously reported. Biochemical assays were performed using standard biochemical assays, as previously reported. Plasmatic Pentraxin 2 and CCL-2 and CXCL-2 were measured respectively using the Mouse Pentraxin 2/SAP Quantikine ELISA Kit and the next generation ELISA kit according to the manufacturer's instruction.
Immunoblot analysis: Packed red cells were lysed in ice-cold phosphate lysis buffer (5 mM Na2HPO4, pH 8.0, containing protease inhibitor cocktail tablets, 3 mM benzamidine final concentration, 1 mM Na3VO4 final concentration) and centrifuged 10 min at 4° C. at 12,000 g. Red cell membrane (ghost) and cytosol fractions were obtained as previously reported. Frozen lung, kidney and aorta from each studied group were homogenized and lysed with iced lyses buffer (150 mM NaCl, 25 mM bicine, 0.1% SDS, 2% Triton X-100, 1 mM EDTA, protease inhibitor cocktail tablets, 1 mM Na3VO4 final concentration) then centrifuged 30 min at 4° C. at 12,000 g. Specific antibodies used are: anti Phospho-Tyrosine (clone PY99 from SCBT, Santa Cruz, CA (dilution 1:3000, 75 μg loaded) and clone 4G10 from Merck KGaA, Darmstadt, Germany (dilution 1:1600, 75 μgr loaded)); anti Phospho (Ser536) NF-kB p65 (dilution 1:1000, 75 μg loaded) and anti NF-kB p65 (clone C22B4) (dilution 1:1000, 75 μgr loaded) from Cell Signaling Technology (Danvers, MA, USA); anti-NLRP3/NALP3 from Vinci-Biochem Srl, Vinci, Italy (dilution 1:1000, 75 μgr loaded); anti Endothelin-1 (ET-1) form AbCam, Cambridge, UK (dilution 1:1000, 75 μgr loaded); anti VCAM-1 (R and D Systems, Minneapolis, MN, USA (dilution 1:1000, 40 μgr loaded)); anti ICAM-1 (clone EP1442Y, dilution 1:1000, 75 μgr loaded, AbCam, Cambridge, UK); anti TXAS-1 (Cayman, Ann Arbor, MI, USA); anti Nrf2-phospho-S40 (Clone EP1809Y, dilution 1:1000, 75 μgr loaded, AbCam, Cambridge, UK); anti-Nrf2 (dilution 1:1000, 75 μgr loaded, AbCam, Cambridge, UK); anti Nqo1 from Santa Cruz Biotechnology, Inc, CA, USA (clone C-19; dilution 1:1000, 75 μgr/μl loaded); anti-heme oxygenase 1(HO-1) form SCBT (Santa Cruz, CA, USA (dilution 1:1000, 50 μgr loaded); E-selectin (H-300) (dilution 1:1000, 75 μgr loaded); anti GAPDH from SCBT (Santa Cruz, CA, USA (dilution 1:5000, 50 μgr loaded)); anti Actin from SCBT (Santa Cruz, CA, USA (clone 2A3, dilution 1:1000, 50 μgr/loaded)). […]

[2] = test system: protein and lipid biomarkers of NAFLD patients; assay: Phase IIa NAFLD study: lipidomics and proteomics of blood samples; assay type: in vivo, human
Description: Exploratory analysis: The exploratory analysis included analysis of lipid and metabolic parameters including total cholesterol, triglycerides, very low-density lipoprotein cholesterol (VLDL-C), low density lipoprotein cholesterol (LDL-C), high density lipoprotein cholesterol (HDL-C), non-high-density lipoprotein cholesterol (non-HDL-C), remnant-like particle cholesterol (RLP-C), fasting glucose, insulin, free fatty acids and hemoglobin A1C (HbA1C). Additional exploratory analysis included high throughput lipidomics and proteomics.

BDL-operated mice = assay: BDL study: serum biochemistry (ALT, total bilirubin); assay type: in vivo
Protocol: Sample Collection: For serum samples, non-fasting blood was collected in serum separate tubes without anticoagulant through direct cardiac puncture and centrifuged at 3,500×g for 4 minutes at 4° C. The superatant was collected and stored at −80° C. for biochemistry (30 μL) and shipping (all the remaining). For liver samples, left lateral lobe was collected and cut into 6 pieces. Two pieces of left lateral lobe were fixed in Bouin's solution and then embedded in paraffin. Samples were stored at room temperature for histological analysis. The other 2 pieces of left lateral lobe were embedded in O.C.T. compound and quick frozen in liquid nitrogen. Samples were stored at −80° C. The remaining pieces of left lateral lobe was snap frozen in liquid nitrogen and stored at −80° C. for gene expression analyses. Right medial lobe, left medial lobe, right lobe and caudate lobe were snap frozen in liquid nitrogen and stored at −80° C. for shipping.

[3] = 50 mg/kg PO QD Day 0-13, Day 14, mean ± SD
[4] = 250 mg/kg PO QD Day 0-13, Day 14, mean ± SD
[5] = 500 mg/kg PO QD Day 0-13, Day 14, mean ± SD
[6] = DS102 50, 250, 500 mg/kg groups vs Vehicle group

SMILES: CC/C=C\C[C@H](O)/C=C/C=C\C/C=C\C/C=C\CCCC(=O)OCC [DS102, 15(S)-hydroxy-(5Z,8Z,11Z,13E,17Z)-eicosapentaenoic acid ethyl ester]
- highest dose tested, showing no adverse effects (rats): 1 mg/kg/day
- tolerability and body weight [1]: well tolerated without major changes in body weight
- ALT ([1]; normoxia): significant reduction
- AST ([1]; normoxia): no change
- CRP ([1]; normoxia): significant reduction
- circulating neutrophils ([1]; normoxia): significant reduction
- expression of VCAM-1, ICAM1 and endothelin-1 (ET-1) in lungs, kidneys, livers ([1]; normoxia): significantly reduction
- liver protein oxidation ([1]; normoxia): marked reduction
- pentraxin-2 ([1]; normoxia): trend toward a reduction
- plasma CCL2/MCP1 ([1]; normoxia): lower
- BUN ([1]; normoxia, vs vehicle): no change
- activation of NF-kB in lungs, kidneys, and livers ([1]; normoxia, vs vehicle): significantly reduced
- expression of ICAM-1 and ET-1 in isolated aortas ([1]; normoxia, vs vehicle): significantly down-regulated
- serum creatinine ([1]; normoxia, vs vehicle): trend toward a reduction
- hematocrit or reticulocyte counts ([1]; normoxic conditions): no significant changes
- expression of multiple circulating chemokines [2]: decreased
- expression of multiple proteins associated with increased cardiovascular risk [2]: decreased
- expression of multiple tumor necrosis factor receptor superfamily members [2]: decreased
- expression of multiple vascular adhesion molecules [2]: decreased
- TR (transferrin receptor protein 1) ([2]; 1 g): significant reductions
- NASH drug development targets (CCR2/5 signaling, Galectin3, AOC3) ([2]; 2 g): decreased
- levels of multiple glycerophospholipid groups ([2]; 2 g): significantly increased
- levels of multiple hepatotoxic diglycerides ([2]; 2 g): significantly decreased
- inflammatory and pro-fibrotic proteins (Table 19: PAI-1, TIMP-1, DPP4, TLT2, CCL16, MCP-1, SAA4, PI3/Elafin, TR, LILRB1, TNRSF11A) ([2]; 2 g, Bonferroni and Benjamini-Hochberg testing): decreased
- number of markers (inflammation, fibrosis, lipid metabolism, apoptosis, chemotaxis) with significantly downregulated expression ([2]; 2 g, panel of greater than 350 protein biomarkers): over 150
- Serum ALT (BDL-operated mice; [3]): 402 ± 112 U/L
- Serum Total Bilirubin (BDL-operated mice; [3]): 26.8 ± 6.9 mg/dL
- Serum ALT (BDL-operated mice; [4]): 351 ± 155 U/L
- Serum Total Bilirubin (BDL-operated mice; [4]): 23.5 ± 9.8 mg/dL
- Serum ALT (BDL-operated mice; [5]): 383 ± 147 U/L
- Serum Total Bilirubin (BDL-operated mice; [5]): 26.2 ± 6.1 mg/dL
- serum ALT level (BDL-operated mice; [6]): no significant differences
- serum total bilirubin level (BDL-operated mice; [6]): no significant differences
